What was measured:
[1] = hydrodynamic radius of micelles by dynamic light scattering (DLS); format: physicochemical; settings: compound at 1.0 wt %
Protocol: Methods of measuring the radius of micelles are not particularly limited, and methods widely known in the art may be used. For example, dynamic light scattering (DLS) may be used.
(§1) Specifically, critical micellar concentrations (CMCs) were measured using hydrophobic fluorescent staining and diphenylhexatriene (DPH), and the hydrodynamic radii (Rh) of micelles formed by each compound at a concentration of 1.0 wt % were measured using dynamic light scattering (DLS). The results were compared with results obtained from an existing amphipathic molecule (detergent), DDM, and are shown in Table 1.
When measuring, each of PSAs, PSEs and TPSs was used at a concentration of 1.0 wt %.

[2] = molecular target: T1, boron transporter (BOR1) BOR1-GFP fusion protein (Arabidopsis thaliana, UniProt Q8VYR7); experiment: solubilization (extraction) of BOR1-GFP fusion protein from membranes; settings: amphipathic compound at 1.0 wt %
T1 construct: made in house; host or cells: Saccharomyces cerevisiae FGY217
Protocol: The ability of PSAs and PSEs to solubilize membrane proteins and to stabilize the structures of membrane proteins was evaluated using boron transporter (BOR1), a membrane protein. BOR1 was isolated from Arabidopsis thaliana, and was expressed in the form of a fusion protein having a GFP tag at the C-terminus in Saccharomyces cerevisiae FGY217 cells. This fusion protein has been proven to have boron transporting activity and is therefore involved in both structural and functional analysis of membrane proteins.
The ability of amphipathic compound PSAs and PSEs to solubilize the boron transporter (BOR1) membrane protein was evaluated.
Specifically, membranes containing BOR1-GFP fusion proteins were treated with an existing amphipathic compound (DDM), PSAs (PSA-C9, PSA-C10 and PSA-C11), or PSEs (PSE-C9, PSE-C11 and PSE-C13) at a concentration of 1.0 wt %. The solubilization efficiencies of PSA-C9, PSA-C10 and PSE-C9 were about 80% similar to the solubilization efficiency of DDM. In particular, the BOR1-GFP protein was quantitatively extracted (˜100%) using PSE-C11 having medium length chains, thus confirming that PSE-C11 is particularly useful for solubilization of BOR1-GFP.
(§2) Specifically, Arabidopsis thaliana-derived BOR1 was expressed in the form of a fusion protein having a GFP tag at the C-terminus in Saccharomyces cerevisiae FGY217 cells. The cells were grown in an URA-medium supplemented with 0.1% glucose. 2% galactose was added to the cell culture to induce protein expression and the cells were cultured at 20° C. for 18 hours (see Drew, D. et al., Nat. Protoc. 2008, 3, 784-798.). After culture, the cells were harvested and used to obtain the cell membranes (see Leung, J. et al., Protein Expr. Purif. 2010, 72, 139-146.). Membranes containing BOR1-GFP fusion proteins were diluted to a final total protein concentration of 2.8 mg/mL in PBS (pH7.4) supplemented with 1 wt % DDM, 1 wt % PSAs (PSA-C9, PSA-C10 or PSA-C11) or 1 wt % PSEs (PSE-C9, PSE-C11 or PSE-C13). The diluted samples were incubated at 4° C. for 1 hour with gentle shaking, and insoluble substances were removed by centrifugation at 14,000 g for 1 hour at 4° C. Supernatants containing the dissolved protein samples were incubated for 10 minutes at the specified temperature (35, 40, 45 or 50° C.), and strongly agglutinated proteins were removed by centrifugation at 14,000 g for 10 minutes at 4° C. 200 μL aliquots were taken from the supernatant and injected into a Superose 6 10/300 column equilibrated with 20 mM Tris-HCl (pH 7.5), 150 mM NaCl and 0.03% DDM. Each elution fraction was collected from a retention volume of 6.4 mL (i.e., after 6.4 mL of solution had passed), and added to a well of a clear bottom 96-well plate at a volume of 200 μL. GFP fluorescence generated in each fraction was measured using an excitation wavelength of 470 nm and an emission wavelength of 512 nm.

[3] = critical micelle concentration (CMC) by hydrophobic fluorescent staining with diphenylhexatriene (DPH); format: physicochemical
Excerpt: Methods of measuring CMC are not particularly limited, and methods widely known in the art may be used. For example, a fluorescence staining method using diphenylhexatriene (DPH) may be used.
To characterize PSAs of Preparation Examples 1 to 3 synthesized according to the synthetic method of Example 1; PSEs of Preparation Examples 4 to 7 synthesized according to the synthetic method of Example 2; TPS-Es and TPS-ELs of Preparation Examples 8 to 14 synthesized according to the synthetic method of Example 3; and TPS-As of Preparation Examples 15 to 17 synthesized according to the synthetic method of Example 4, the critical micellar concentrations (CMCs) of PSAs, PSEs and TPSs and the hydrodynamic radii (Rh) of formed micelles were measured.
as §1

[4] = molecular target: T1, boron transporter (BOR1) BOR1-GFP fusion protein; experiment: structural (thermal) stability of solubilized BOR1-GFP by fluorescence-based size exclusion chromatography (FSEC); settings: heated at 40° C. for 10 minutes, 1 wt % compound
Protocol: The ability of PSAs or PSEs to stabilize the structure of boron transporter (BOR1) was measured in an aqueous solution. That is, the BOR1 protein solubilized in each amphipathic compound was denatured by heating, and then structural stability of BOR1 was measured using fluorescence-based size exclusion chromatography (FSEC).
as §2

[5] = molecular target: T2, Salmonella typhimurium melibiose permease (MelB) (Salmonella typhimurium, UniProt P30878); experiment: MelB extraction efficiency and thermal stability by SDS-PAGE and western immunoblotting; settings: 1.5 wt %, 0° C., 90 minutes (similar results at 45° C.)
T2 construct: made in house; host or cells: DW2 cells (melB and lacZY), Salmonella typhimurium DW2; plasmid pK95AHB/WT MelBst/CH10
Protocol: The ability of PSAs or PSEs to extract (solubilize) MelBst (Salmonella typhimurium melibiose permease) proteins and stabilize the structures thereof was measured. MelB proteins were extracted using PSAs, PSEs or DDM, and the amount of the extracted proteins and structural stability thereof were quantitatively analyzed by SDS-PAGE and western immunoblotting. The protein extraction efficiency and thermally stabilizing ability of the amphipathic compounds were simultaneously evaluated by extracting MelB proteins at four temperatures (0, 45, 55 or 65° C.) for 90 minutes using the amphipathic compounds at a concentration of 1.5 wt %.
Specifically, according to the method described in the journal article (P. S. Chae, et al., Chemistry. 2013, 19, 15645-15651.) published by the present inventors, proteins (MelBst) were produced using a plasmid pK95AHB/WT MelBst/CH10 containing a gene construct encoding wild-type MelB having 10×His tags at the C-terminus and Salmonella typhimurium DW2 cells (melB and lacZY). According to the method described in the journal article (A. S. Ethayathulla et al., Nat. Commun. 2014, 5, 3009), cells were cultured and the cell membranes were obtained from the cultured cells. Protein analysis was performed using a Micro BCA kit (Thermo Scientific, Rockford, Ill.). To measure solubilization/stability, membrane samples (the final concentration of membrane proteins was 10 mg/mL) containing MelBst were mixed with a solubilization buffer solution (20 mM sodium phosphate, pH 7.5, 200 mM NaCl, 10% glycerol and 20 mM melibiose) containing DDM, PSAs (PSA-C11) or PSEs (PSE-C9, PSE-C11, PSE-C13) at a concentration of 1.5% (w/v). Extracts were incubated at four different temperatures (0, 45, 55 and 65° C.) for 90 minutes. Fractions were removed by ultracentrifugation at 355,590 g for 45 minutes using a Beckman Optima™ MAX ultracentrifuge equipped with a No. 4 TLA-100 rotor. 20 μg of proteins was separated using a 15% SDS-PAGE gel. Next, immunoblotting was performed using Penta-His-HRP antibodies (Qiagen, Germantown, Md.). After performing SDS-PAGE and immunoblotting, the amount of solubilized MelB was quantitated and expressed as a percentage of the amount of MelB measured in the control group.

T2 sequence (P30878 whole entry): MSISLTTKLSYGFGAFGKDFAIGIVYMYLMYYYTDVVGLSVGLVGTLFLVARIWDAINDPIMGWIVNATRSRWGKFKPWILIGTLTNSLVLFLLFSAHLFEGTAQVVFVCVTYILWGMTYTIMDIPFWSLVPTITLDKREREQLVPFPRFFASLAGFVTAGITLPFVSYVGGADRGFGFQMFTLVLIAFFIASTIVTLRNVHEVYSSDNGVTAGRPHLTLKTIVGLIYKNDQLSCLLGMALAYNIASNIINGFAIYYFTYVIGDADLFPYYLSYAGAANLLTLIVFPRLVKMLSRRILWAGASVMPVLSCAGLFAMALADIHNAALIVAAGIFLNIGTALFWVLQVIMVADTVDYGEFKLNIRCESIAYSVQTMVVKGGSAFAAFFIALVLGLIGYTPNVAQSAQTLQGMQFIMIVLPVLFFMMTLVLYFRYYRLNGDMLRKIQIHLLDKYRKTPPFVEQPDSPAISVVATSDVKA

Structure (SMILES) | Rh (nm), hydrodynamic radius of micelles [1] | solubilization efficiency of BOR1-GFP [2] | CMC [3] | CMC (wt %) [3] | structural stability of solubilized BOR1-GFP after heating (RFU, FSEC) [4] | MelB extraction efficiency [5]
CCCCCCCCCC(CCCCCCCCC)CO[C@@H]1OC(CO[C@@H]2OC(CO)[C@@H](O)C(O)C2O)[C@@H](O[C@@H]2OC(CO)[C@@H](O)C(O)C2O)C(O[C@@H]2OC(CO)[C@@H](O)C(O)C2O)C1O[C@@H]1OC(CO)[C@@H](O)C(O)C1O (stereo partly drawn) [PSA-C9] | 2.94 ± 0.05 nm | about 80% | ~0.014 mM | ~0.0016 wt % | – | –
CCCCCCCCCCC(CCCCCCCCCC)CO[C@@H]1OC(CO[C@@H]2OC(CO)[C@@H](O)C(O)C2O)[C@@H](O[C@@H]2OC(CO)[C@@H](O)C(O)C2O)C(O[C@@H]2OC(CO)[C@@H](O)C(O)C2O)C1O[C@@H]1OC(CO)[C@@H](O)C(O)C1O (stereo partly drawn) [PSA-C10] | 3.10 ± 0.05 nm | about 80% | ~0.009 mM | ~0.0010 wt % | remarkably improved as compared to DDM and PSA-C9 | –
CCCCCCCCCOCC(COCCCCCCCCC)O[C@@H]1OC(CO[C@@H]2OC(CO)[C@@H](O)C(O)C2O)[C@@H](O[C@@H]2OC(CO)[C@@H](O)C(O)C2O)C(O[C@@H]2OC(CO)[C@@H](O)C(O)C2O)C1O[C@@H]1OC(CO)[C@@H](O)C(O)C1O (stereo partly drawn) [PSE-C9] | 3.19 ± 0.04 nm | about 80% | ~0.026 mM | ~0.0030 wt % | greatly improved compared to DDM | extracted at an efficiency similar to the efficiency observed in the case of DDM

— patent publication US20190169218A1, “AMPHIPATHIC COMPOUND HAVING NOVEL PENTA-SACCHARIDE HYDROPHILIC GROUP AND USE THEREOF” (Industry-University Cooperation Foundation Hanyang …, priority 2016, published 2019)
